# In patent publication US6670354B2, “Methods to enhance white blood cell count” (AnorMed, Inc., priority 1999, dated 2003):
# Legend:
# [1] = test system: white blood cell (WBC) count
# Description: Eleven human patients having initial white blood cell counts of 4,000-6,500 cells/mm^3 were used in the study. An intravenous dosing solution of AMD3100 (i.e., 1,1′-[1,4-phenylene-bis(methylene)]-bis-1,4,8,11-tetraazacyclotetradecane) were prepared from a stock solution which is a 1 mg/ml 1:10 dilution of a concentrate in 0.9% saline (normal saline) under sterile conditions. Aliquots from this stock solution were added to 50-ml bags of 0.9% saline for intravenous injection in amounts to achieve the desired dosage levels (10 μg/kg-80 μg/kg).
# The subjects described in this example already contained an indwelling peripheral intravenous catheter. The prescribed amount of AMD3100 was administered over 15 minutes by intravenous fusion in a single dose. Blood samples were obtained prior to the dose, and at various times up to 24 hours after dose administration.
# Eleven human subjects received intravenous administration of AMD-3100 at doses 10, 20, 40, and 80 μg/kg. Five subjects also received a single subcutaneous injection of AMD-3100 at doses of 40 and 80 μg/kg. Three patients were administered dosages of 10 μg/kg (open circles); 3 patients were administered dosages of 20 μg/kg (solid circles); 3 patients were administered 40 μg/kg (open triangles); and 2 patients were administered 80 μg/kg (closed triangles).
# [2] = test system: white blood cell (WBC) count; remark: listed apart in the source
# Description: Eight patients received AMD-3100 at infusion dose rates of 2.5 μg/kg/hr (patients 1-4) and 5.0 μg/kg/hr (patients 5-8).
compound,measurement,setting,value
"c1cc(CN2CCCNCCNCCCNCC2)ccc1CN1CCCNCCNCCCNCC1 [AMD3100, 1,1′-[1,4-phenylene-bis(methylene)]-bis-1,4,8,11-tetraazacyclotetradecane]",effect on white blood cell count after administration,"[1]; all 11 patients, 10, 20, 40, 80 μg/kg i.v. over 15 minutes, single dose, over the succeeding 5-10 hours, tapered off after about 24 hours, not returning to original level",marked increase in white blood cell count
same,"white blood cell count, peak value","[1]; one patient who received 80 μg/kg i.v., from 6,000 cells/mm^3 before dose","19,000 cells/mm^3"
same,white blood cell count after increase,"[1]; patient showing the least response, 20 μg/kg i.v., from about 6,300 cells/mm^3","about 9,000 cells/mm^3"
same,time for WBC counts to return to baseline after discontinuation of the infusion,"[2]; continuous infusion 2.5 or 5.0 μg/kg/hr for up to 10 days, HIV-infected patients",7 days
same,ability to enhance WBC count in human patients,[2]; following single dose or with continuous infusion,consistently able to enhance WBC count
